# Experimental data as given in publication PMC11843613, “Further Optimization of the mGlu1 PAM VU6024578/BI02982816: Discovery and Characterization of VU6033685” (ACS Chemical Neuroscience, 2025).
# Key:
# striatal DA release = assay: Electrically evoked striatal DA release in brain slices (fast scanning cyclic voltammetry); details: 10 μM DHPG alone, mouse slices
# Procedure: into the home cage. The arena is then cleaned with 70% ethanol in between animals. The day of the test the animals are habituated to the dosing room for 2 hours. The animals were administered VU6024578 (1-10 mg/kg p.o.) or vehicle (10% Tween 80) and were placed back into their homecage for 60 min. The animals were then injected with MK-801 (0.075 mg/kg 1 ml/kg s.c.) and placed back in the homecage for 30 min. The animals are then placed into the arena with two identical familiar objects for ten minutes and then placed back into the home cage. The animals are then placed back into the arena with one of the familiar objects replaced with a novel object at 120 min after the familiar object exposure. The activity of the animals are recorded and the time spent exploring each of the objects is scored by a blinded observer. Recognition index is determined by subtracting […] divided by total time spent exploring.
# Brain Slice Preparation and Fast Scanning Cyclic Voltammetry: […]
# Electrically-evoked dopamine overflow was monitored with carbon fiber electrodes as previously reported (Foster et al. 2014). […]
# human mGlu1 = target: T1, human mGlu1 (Homo sapiens, UniProt Q13255); parameters: method as in PMID 39665415; details: previously reported compound; cited from earlier work
# T1 construct: expressed in transfected cells; pcDNA5/TO)
# [1] = parameters: method as in PMID 39665415; details: cited from earlier work
# [2] = system: amphetamine-induced hyperlocomotion in rats; parameters: method as in PMID 39665415; details: cited from earlier work
# T1 sequence (Q13255 19-1194): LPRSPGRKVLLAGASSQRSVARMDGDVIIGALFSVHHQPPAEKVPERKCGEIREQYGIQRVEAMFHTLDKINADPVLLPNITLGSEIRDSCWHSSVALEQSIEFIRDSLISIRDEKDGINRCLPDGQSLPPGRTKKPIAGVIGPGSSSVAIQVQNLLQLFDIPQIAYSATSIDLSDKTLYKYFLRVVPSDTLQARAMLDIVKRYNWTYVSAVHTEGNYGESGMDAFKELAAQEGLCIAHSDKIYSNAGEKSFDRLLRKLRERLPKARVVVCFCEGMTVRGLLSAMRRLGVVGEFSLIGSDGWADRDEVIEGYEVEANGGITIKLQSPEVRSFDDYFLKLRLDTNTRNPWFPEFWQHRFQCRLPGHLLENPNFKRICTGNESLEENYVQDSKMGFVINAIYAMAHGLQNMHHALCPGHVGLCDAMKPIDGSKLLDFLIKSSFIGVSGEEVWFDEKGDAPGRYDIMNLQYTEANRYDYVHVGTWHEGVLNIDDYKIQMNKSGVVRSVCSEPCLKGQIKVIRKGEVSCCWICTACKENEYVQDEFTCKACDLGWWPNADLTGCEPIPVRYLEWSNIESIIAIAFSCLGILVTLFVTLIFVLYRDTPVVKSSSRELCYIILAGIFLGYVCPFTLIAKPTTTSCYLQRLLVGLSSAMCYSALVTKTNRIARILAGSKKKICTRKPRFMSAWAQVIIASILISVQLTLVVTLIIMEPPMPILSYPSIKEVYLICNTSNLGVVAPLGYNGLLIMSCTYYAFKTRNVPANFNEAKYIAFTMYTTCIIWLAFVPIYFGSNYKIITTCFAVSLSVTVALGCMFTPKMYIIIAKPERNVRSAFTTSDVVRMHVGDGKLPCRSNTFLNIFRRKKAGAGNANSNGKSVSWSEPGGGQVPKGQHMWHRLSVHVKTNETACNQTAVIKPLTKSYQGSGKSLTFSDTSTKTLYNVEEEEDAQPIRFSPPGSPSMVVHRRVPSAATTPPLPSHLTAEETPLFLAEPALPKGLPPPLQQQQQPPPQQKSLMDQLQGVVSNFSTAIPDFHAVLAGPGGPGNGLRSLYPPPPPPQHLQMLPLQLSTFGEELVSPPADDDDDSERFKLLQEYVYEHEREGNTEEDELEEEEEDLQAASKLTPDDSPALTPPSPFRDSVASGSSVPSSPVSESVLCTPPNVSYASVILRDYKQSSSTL
Structure (SMILES),"effect on striatal DA release, agonist alone (striatal DA release)",mGlu1 Glumax of 3 (human mGlu1) [%],species with adverse events [1],unbound brain level as fold of rat mGlu1 EC50 at which AHL was reversed [2] [fold]
"N[C@H](C(=O)O)c1cc(O)cc(O)c1 [DHPG, (S)-3,5-dihydroxyphenylglycine, reference compound]",did not produce a significant inhibition of striatal DA release,,,
Cn1nc(-c2ccnn2C)cc1CNC(=O)c1cc(-c2ccco2)ccc1Cl [compound 3],,83,only exhibited AEs in dogs,~0.7
